Laboratory results taken from the NIST ThermoML archive (doi:10.1016/j.jct.2011.08.016).
Numbers after ± are expanded uncertainties.

Experiment: xn = mol fraction of the nth substance listed
Settings: Liquid, Vibrating tube method

Structure (SMILES): CCCCCCCCCC [decane] + CCCCCCCC
- mass density (353.12 K, 10000 kPa, x2 = 0.2801): 687.61 ± 0.46 kg/m3
- mass density (353.12 K, 10000 kPa, x2 = 0.5314): 680.99 ± 0.47 kg/m3
- mass density (353.12 K, 10000 kPa, x2 = 0.7736): 673.43 ± 0.47 kg/m3
- mass density (353.12 K, 10990 kPa, x2 = 0.0616): 693.88 ± 0.47 kg/m3
- mass density (353.12 K, 10990 kPa, x2 = 0.2801): 688.64 ± 0.47 kg/m3
- mass density (353.12 K, 10990 kPa, x2 = 0.5314): 682.03 ± 0.47 kg/m3
- mass density (353.12 K, 10990 kPa, x2 = 0.7736): 674.52 ± 0.48 kg/m3
- mass density (353.12 K, 12000 kPa, x2 = 0.0616): 694.85 ± 0.47 kg/m3
- mass density (353.12 K, 12000 kPa, x2 = 0.2801): 689.64 ± 0.47 kg/m3
- mass density (353.12 K, 12000 kPa, x2 = 0.5314): 683.07 ± 0.48 kg/m3
- mass density (353.12 K, 12000 kPa, x2 = 0.7736): 675.55 ± 0.49 kg/m3
- mass density (353.12 K, 13000 kPa, x2 = 0.0616): 695.8 ± 0.48 kg/m3
- mass density (353.12 K, 13000 kPa, x2 = 0.2801): 690.64 ± 0.48 kg/m3
- mass density (353.12 K, 13000 kPa, x2 = 0.5314): 684.09 ± 0.49 kg/m3
- mass density (353.12 K, 13000 kPa, x2 = 0.7736): 676.59 ± 0.49 kg/m3
- mass density (353.12 K, 14000 kPa, x2 = 0.0616): 696.76 ± 0.48 kg/m3
- mass density (353.12 K, 14000 kPa, x2 = 0.2801): 691.6 ± 0.49 kg/m3
- mass density (353.12 K, 14000 kPa, x2 = 0.5314): 685.09 ± 0.49 kg/m3
- mass density (353.12 K, 14000 kPa, x2 = 0.7736): 677.61 ± 0.5 kg/m3
- mass density (353.12 K, 15000 kPa, x2 = 0.0616): 697.7 ± 0.49 kg/m3
- mass density (353.12 K, 15000 kPa, x2 = 0.2801): 692.59 ± 0.49 kg/m3
- mass density (353.12 K, 15000 kPa, x2 = 0.5314): 686.08 ± 0.5 kg/m3
- mass density (353.12 K, 15000 kPa, x2 = 0.7736): 678.66 ± 0.51 kg/m3
- mass density (353.12 K, 16000 kPa, x2 = 0.0616): 698.61 ± 0.5 kg/m3
- mass density (353.12 K, 16000 kPa, x2 = 0.2801): 693.55 ± 0.5 kg/m3
- mass density (353.12 K, 16000 kPa, x2 = 0.5314): 687.05 ± 0.51 kg/m3
- mass density (353.12 K, 16000 kPa, x2 = 0.7736): 679.66 ± 0.51 kg/m3
- mass density (353.12 K, 17000 kPa, x2 = 0.0616): 699.52 ± 0.5 kg/m3
- mass density (353.12 K, 17000 kPa, x2 = 0.2801): 694.46 ± 0.51 kg/m3
- mass density (353.12 K, 17000 kPa, x2 = 0.5314): 688 ± 0.51 kg/m3
- mass density (353.12 K, 17000 kPa, x2 = 0.7736): 680.68 ± 0.52 kg/m3
- mass density (353.12 K, 18000 kPa, x2 = 0.0616): 700.43 ± 0.51 kg/m3
- mass density (353.12 K, 18000 kPa, x2 = 0.2801): 695.35 ± 0.51 kg/m3
- mass density (353.12 K, 18000 kPa, x2 = 0.5314): 688.93 ± 0.52 kg/m3
- mass density (353.12 K, 18000 kPa, x2 = 0.7736): 681.63 ± 0.53 kg/m3
- mass density (353.12 K, 19000 kPa, x2 = 0.0616): 701.32 ± 0.51 kg/m3
- mass density (353.12 K, 19000 kPa, x2 = 0.2801): 696.27 ± 0.52 kg/m3
- mass density (353.12 K, 19000 kPa, x2 = 0.5314): 689.85 ± 0.53 kg/m3
- mass density (353.12 K, 19000 kPa, x2 = 0.7736): 682.58 ± 0.53 kg/m3
- mass density (353.12 K, 20000 kPa, x2 = 0.0616): 702.19 ± 0.52 kg/m3
- mass density (353.12 K, 20000 kPa, x2 = 0.2801): 697.16 ± 0.53 kg/m3
- mass density (353.12 K, 20000 kPa, x2 = 0.5314): 690.77 ± 0.53 kg/m3
- mass density (353.12 K, 20000 kPa, x2 = 0.7736): 683.51 ± 0.54 kg/m3
- mass density (353.12 K, 21000 kPa, x2 = 0.0616): 703.05 ± 0.53 kg/m3
- mass density (353.12 K, 21000 kPa, x2 = 0.2801): 698.02 ± 0.53 kg/m3
- mass density (353.12 K, 21000 kPa, x2 = 0.5314): 691.66 ± 0.54 kg/m3
- mass density (353.12 K, 21000 kPa, x2 = 0.7736): 684.41 ± 0.55 kg/m3
- mass density (353.12 K, 22000 kPa, x2 = 0.0616): 703.89 ± 0.53 kg/m3
- mass density (353.12 K, 22000 kPa, x2 = 0.2801): 698.88 ± 0.54 kg/m3
- mass density (353.12 K, 22000 kPa, x2 = 0.5314): 692.54 ± 0.55 kg/m3
- mass density (353.12 K, 22000 kPa, x2 = 0.7736): 685.32 ± 0.55 kg/m3
- mass density (353.12 K, 23000 kPa, x2 = 0.0616): 704.72 ± 0.54 kg/m3
- mass density (353.12 K, 23000 kPa, x2 = 0.2801): 699.72 ± 0.55 kg/m3
- mass density (353.12 K, 23000 kPa, x2 = 0.5314): 693.39 ± 0.55 kg/m3
- mass density (353.12 K, 23000 kPa, x2 = 0.7736): 686.21 ± 0.56 kg/m3
- mass density (353.12 K, 24000 kPa, x2 = 0.0616): 705.52 ± 0.55 kg/m3
- mass density (353.12 K, 24000 kPa, x2 = 0.2801): 700.52 ± 0.55 kg/m3
- mass density (353.12 K, 24000 kPa, x2 = 0.5314): 694.23 ± 0.56 kg/m3
- mass density (353.12 K, 24000 kPa, x2 = 0.7736): 687.06 ± 0.57 kg/m3
- mass density (353.12 K, 25000 kPa, x2 = 0.0616): 706.29 ± 0.55 kg/m3
- mass density (353.12 K, 25000 kPa, x2 = 0.2801): 701.34 ± 0.56 kg/m3
- mass density (353.12 K, 25000 kPa, x2 = 0.5314): 695.07 ± 0.57 kg/m3
- mass density (353.12 K, 25000 kPa, x2 = 0.7736): 687.92 ± 0.58 kg/m3
- mass density (363.02 K, 1000 kPa, x2 = 0.5314): 662.89 ± 0.42 kg/m3
- mass density (363.02 K, 2000 kPa, x2 = 0.5314): 664.16 ± 0.43 kg/m3
- mass density (363.02 K, 3000 kPa, x2 = 0.5314): 665.39 ± 0.43 kg/m3
- mass density (363.02 K, 4000 kPa, x2 = 0.5314): 666.61 ± 0.44 kg/m3
- mass density (363.02 K, 5000 kPa, x2 = 0.5314): 667.85 ± 0.44 kg/m3
- mass density (363.02 K, 6000 kPa, x2 = 0.5314): 669.05 ± 0.45 kg/m3
- mass density (363.02 K, 7000 kPa, x2 = 0.5314): 670.24 ± 0.45 kg/m3
- mass density (363.02 K, 8000 kPa, x2 = 0.5314): 671.39 ± 0.46 kg/m3
- mass density (363.02 K, 9000 kPa, x2 = 0.5314): 672.53 ± 0.46 kg/m3
- mass density (363.02 K, 10000 kPa, x2 = 0.5314): 673.66 ± 0.47 kg/m3
- mass density (363.02 K, 10990 kPa, x2 = 0.5314): 674.79 ± 0.48 kg/m3
- mass density (363.02 K, 12000 kPa, x2 = 0.5314): 675.87 ± 0.48 kg/m3
- mass density (363.02 K, 13000 kPa, x2 = 0.5314): 676.95 ± 0.49 kg/m3
- mass density (363.02 K, 14000 kPa, x2 = 0.5314): 678.01 ± 0.5 kg/m3
- mass density (363.02 K, 15000 kPa, x2 = 0.5314): 679.06 ± 0.5 kg/m3
- mass density (363.02 K, 16000 kPa, x2 = 0.5314): 680.09 ± 0.51 kg/m3
- mass density (363.02 K, 17000 kPa, x2 = 0.5314): 681.1 ± 0.52 kg/m3
- mass density (363.02 K, 18000 kPa, x2 = 0.5314): 682.1 ± 0.52 kg/m3
- mass density (363.02 K, 19000 kPa, x2 = 0.5314): 683.1 ± 0.53 kg/m3
- mass density (363.02 K, 20000 kPa, x2 = 0.5314): 684.05 ± 0.54 kg/m3
- mass density (363.02 K, 21000 kPa, x2 = 0.5314): 685 ± 0.54 kg/m3
- mass density (363.02 K, 22000 kPa, x2 = 0.5314): 685.91 ± 0.55 kg/m3
- mass density (363.02 K, 23000 kPa, x2 = 0.5314): 686.82 ± 0.56 kg/m3
- mass density (363.02 K, 24000 kPa, x2 = 0.5314): 687.69 ± 0.57 kg/m3
- mass density (363.02 K, 25000 kPa, x2 = 0.5314): 688.57 ± 0.57 kg/m3
- mass density (363.03 K, 1000 kPa, x2 = 0.0616): 675.72 ± 0.42 kg/m3
- mass density (363.03 K, 2000 kPa, x2 = 0.0616): 676.86 ± 0.42 kg/m3
- mass density (363.03 K, 3000 kPa, x2 = 0.0616): 678.03 ± 0.43 kg/m3
- mass density (363.03 K, 4000 kPa, x2 = 0.0616): 679.17 ± 0.43 kg/m3
- mass density (363.03 K, 5000 kPa, x2 = 0.0616): 680.28 ± 0.44 kg/m3
- mass density (363.03 K, 6000 kPa, x2 = 0.0616): 681.38 ± 0.44 kg/m3
